Patent US7074789B2, “Kinase inhibitors” (Amgen Inc., priority 1999, dated 2006)

How the values were obtained:
Format in all cases: biochemical
Lck = biological target: T1, Lck (Homo sapiens, UniProt P06239); assay: Kinase inhibition assay (33P transfer), Lck; conditions: read-out: Lck-1
T1 construct: Kinases are expressed as either kinase domains or full length constructs; made in house
Method in brief: (§1)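 Activity was read as 33P incorporation, counted by liquid scintillation after a 0.5% phosphoric acid wash, into poly(Glu,Tyr) 4:1 or poly(Arg,Ser) 3:1 substrates coated on plates. Enzymes were tagged (GST or polyHis) kinase domains or full-length proteins from bacterial or insect-cell expression, sometimes with regulatory polypeptides.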

Lyn = biological target: T2, Lyn (Homo sapiens, UniProt P07948); assay: Kinase inhibition assay (33P transfer), Lyn; conditions: Table 6, Lyn-1 kinase inhibition class
T2 construct: Kinases are expressed as either kinase domains or full length constructs; made in house
Method in brief: (§2)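 Read-out: scintillation counts of 33P moved from ATP onto synthetic peptide polymer coated on the well surface, after washing with 0.5% phosphoric acid. Enzymes were tagged (GST or polyHistidine) and came from bacterial or insect-cell expression. IC50 marks 50% loss of incorporated label.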

Src = biological target: T3, Src (Homo sapiens, UniProt P12931); assay: Kinase inhibition assay (33P transfer), Src; conditions: Table 6, Src-1 kinase inhibition class
T3 construct: Kinases are expressed as either kinase domains or full length constructs; made in house
Method in brief: as §2

Fyn = biological target: T4, Fyn (Homo sapiens, UniProt P06241); assay: Kinase inhibition assay (33P transfer), Fyn; conditions: read-out: Fyn-1
T4 construct: Kinases are expressed as either kinase domains or full length constructs; made in house
T4 sequence (P06241 whole entry, species assumed, the tested form may be a part): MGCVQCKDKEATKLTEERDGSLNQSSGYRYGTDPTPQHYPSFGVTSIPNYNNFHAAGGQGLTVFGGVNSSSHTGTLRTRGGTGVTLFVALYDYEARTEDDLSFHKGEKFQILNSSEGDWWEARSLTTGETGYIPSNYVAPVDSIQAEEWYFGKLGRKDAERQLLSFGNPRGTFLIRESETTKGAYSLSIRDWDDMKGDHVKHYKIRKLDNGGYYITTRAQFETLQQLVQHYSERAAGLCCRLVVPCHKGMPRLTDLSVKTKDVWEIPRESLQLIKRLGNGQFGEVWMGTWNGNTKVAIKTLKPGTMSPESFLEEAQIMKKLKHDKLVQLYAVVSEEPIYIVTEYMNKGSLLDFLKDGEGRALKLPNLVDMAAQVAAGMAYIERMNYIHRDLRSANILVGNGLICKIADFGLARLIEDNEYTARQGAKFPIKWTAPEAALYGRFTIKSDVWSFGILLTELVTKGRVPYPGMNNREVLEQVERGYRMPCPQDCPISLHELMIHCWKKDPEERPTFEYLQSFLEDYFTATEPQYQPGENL
Method in brief: as §2

Zap-70 = biological target: T5, Zap-70 (Homo sapiens, UniProt P43403); assay: Kinase inhibition assay (33P transfer), Zap-70; conditions: read-out: Zap-1
T5 construct: Kinases are expressed as either kinase domains or full length constructs; made in house
T5 sequence (P43403 1-619): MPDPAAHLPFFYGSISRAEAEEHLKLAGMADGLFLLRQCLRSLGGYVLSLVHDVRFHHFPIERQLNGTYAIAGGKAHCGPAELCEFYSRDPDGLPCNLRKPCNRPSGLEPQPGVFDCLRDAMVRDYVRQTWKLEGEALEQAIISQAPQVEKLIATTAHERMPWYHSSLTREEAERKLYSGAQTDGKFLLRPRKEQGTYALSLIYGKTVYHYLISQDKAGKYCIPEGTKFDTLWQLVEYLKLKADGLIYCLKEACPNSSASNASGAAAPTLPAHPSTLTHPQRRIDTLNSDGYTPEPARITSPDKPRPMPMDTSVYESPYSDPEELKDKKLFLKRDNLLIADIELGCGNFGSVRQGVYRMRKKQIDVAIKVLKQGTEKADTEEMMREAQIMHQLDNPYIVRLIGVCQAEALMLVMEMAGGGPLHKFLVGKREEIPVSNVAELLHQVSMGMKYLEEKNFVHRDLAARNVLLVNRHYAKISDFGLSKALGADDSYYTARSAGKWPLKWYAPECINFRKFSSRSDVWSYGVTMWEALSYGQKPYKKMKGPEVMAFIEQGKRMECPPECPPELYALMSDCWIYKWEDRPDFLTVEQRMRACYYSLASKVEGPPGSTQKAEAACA
Method in brief: as §1

Itk = biological target: T6, Itk (Homo sapiens, UniProt Q08881); assay: Kinase inhibition assay (33P transfer), Itk; conditions: read-out: Itk-1
T6 construct: Kinases are expressed as either kinase domains or full length constructs; made in house
T6 sequence (Q08881 1-620): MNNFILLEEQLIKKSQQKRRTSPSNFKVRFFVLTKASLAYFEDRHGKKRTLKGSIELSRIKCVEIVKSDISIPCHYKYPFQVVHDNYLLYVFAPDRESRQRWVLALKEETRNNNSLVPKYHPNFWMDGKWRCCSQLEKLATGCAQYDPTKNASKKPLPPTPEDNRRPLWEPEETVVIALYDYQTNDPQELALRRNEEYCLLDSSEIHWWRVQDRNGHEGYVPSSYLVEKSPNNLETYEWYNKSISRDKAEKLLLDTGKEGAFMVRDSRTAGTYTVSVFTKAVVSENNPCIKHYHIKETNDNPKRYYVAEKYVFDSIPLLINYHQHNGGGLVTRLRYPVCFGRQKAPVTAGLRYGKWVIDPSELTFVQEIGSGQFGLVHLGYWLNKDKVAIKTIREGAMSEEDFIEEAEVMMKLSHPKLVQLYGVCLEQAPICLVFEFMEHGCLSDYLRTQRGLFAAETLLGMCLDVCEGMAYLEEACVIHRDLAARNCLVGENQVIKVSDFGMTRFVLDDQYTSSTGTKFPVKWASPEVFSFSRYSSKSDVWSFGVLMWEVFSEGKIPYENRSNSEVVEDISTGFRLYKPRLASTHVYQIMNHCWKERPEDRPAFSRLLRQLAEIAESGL
Method in brief: as §2

EGFR = biological target: T7, EGFR (Homo sapiens, UniProt P00533); assay: Kinase inhibition assay (33P transfer), EGFR; conditions: Table 2, kinase inhibition class; read-out: EGFR-1
T7 construct: Kinases are expressed as either kinase domains or full length constructs; made in house
T7 sequence (P00533 25-1210, species assumed): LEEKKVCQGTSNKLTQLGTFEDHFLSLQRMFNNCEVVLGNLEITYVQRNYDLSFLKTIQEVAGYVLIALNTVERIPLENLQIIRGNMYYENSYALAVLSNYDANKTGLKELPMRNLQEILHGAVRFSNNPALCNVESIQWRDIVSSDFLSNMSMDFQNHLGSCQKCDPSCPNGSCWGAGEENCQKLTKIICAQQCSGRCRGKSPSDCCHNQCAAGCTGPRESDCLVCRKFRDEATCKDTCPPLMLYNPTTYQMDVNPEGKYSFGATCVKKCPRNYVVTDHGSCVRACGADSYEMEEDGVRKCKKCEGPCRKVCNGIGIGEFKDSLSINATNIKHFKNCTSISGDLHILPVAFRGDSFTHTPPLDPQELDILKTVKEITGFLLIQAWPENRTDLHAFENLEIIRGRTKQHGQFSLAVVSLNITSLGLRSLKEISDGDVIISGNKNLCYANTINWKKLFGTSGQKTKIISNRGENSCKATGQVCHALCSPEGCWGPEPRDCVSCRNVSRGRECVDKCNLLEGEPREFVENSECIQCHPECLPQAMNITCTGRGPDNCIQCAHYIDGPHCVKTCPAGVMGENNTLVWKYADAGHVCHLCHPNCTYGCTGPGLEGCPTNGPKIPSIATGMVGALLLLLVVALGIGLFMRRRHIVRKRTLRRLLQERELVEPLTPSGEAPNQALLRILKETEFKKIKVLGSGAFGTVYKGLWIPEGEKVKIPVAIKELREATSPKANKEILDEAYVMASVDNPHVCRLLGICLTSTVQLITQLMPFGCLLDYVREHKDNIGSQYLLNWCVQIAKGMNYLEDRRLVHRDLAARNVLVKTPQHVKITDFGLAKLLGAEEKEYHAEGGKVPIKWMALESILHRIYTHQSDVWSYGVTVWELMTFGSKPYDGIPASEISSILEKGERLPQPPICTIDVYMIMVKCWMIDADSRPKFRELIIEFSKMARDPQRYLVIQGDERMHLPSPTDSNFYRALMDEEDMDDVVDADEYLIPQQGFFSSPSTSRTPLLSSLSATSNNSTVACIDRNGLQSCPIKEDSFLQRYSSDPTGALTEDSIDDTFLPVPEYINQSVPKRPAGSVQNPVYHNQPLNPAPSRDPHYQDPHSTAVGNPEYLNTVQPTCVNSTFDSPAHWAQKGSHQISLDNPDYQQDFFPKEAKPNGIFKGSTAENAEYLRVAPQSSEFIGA
Method in brief: as §2

ErbB2 = biological target: T8, ErbB2 (Homo sapiens, UniProt P04626); assay: Kinase inhibition assay (33P transfer), ErbB2; conditions: read-out: ErbB2-2
T8 construct: Kinases are expressed as either kinase domains or full length constructs; made in house
Method in brief: as §2

Kdr = biological target: T9, Kdr (Homo sapiens, UniProt P35968); assay: Kinase inhibition assay (33P transfer), Kdr; conditions: read-out: KDR-1
T9 construct: Kinases are expressed as either kinase domains or full length constructs; made in house
T9 sequence (P35968 20-1356, species assumed): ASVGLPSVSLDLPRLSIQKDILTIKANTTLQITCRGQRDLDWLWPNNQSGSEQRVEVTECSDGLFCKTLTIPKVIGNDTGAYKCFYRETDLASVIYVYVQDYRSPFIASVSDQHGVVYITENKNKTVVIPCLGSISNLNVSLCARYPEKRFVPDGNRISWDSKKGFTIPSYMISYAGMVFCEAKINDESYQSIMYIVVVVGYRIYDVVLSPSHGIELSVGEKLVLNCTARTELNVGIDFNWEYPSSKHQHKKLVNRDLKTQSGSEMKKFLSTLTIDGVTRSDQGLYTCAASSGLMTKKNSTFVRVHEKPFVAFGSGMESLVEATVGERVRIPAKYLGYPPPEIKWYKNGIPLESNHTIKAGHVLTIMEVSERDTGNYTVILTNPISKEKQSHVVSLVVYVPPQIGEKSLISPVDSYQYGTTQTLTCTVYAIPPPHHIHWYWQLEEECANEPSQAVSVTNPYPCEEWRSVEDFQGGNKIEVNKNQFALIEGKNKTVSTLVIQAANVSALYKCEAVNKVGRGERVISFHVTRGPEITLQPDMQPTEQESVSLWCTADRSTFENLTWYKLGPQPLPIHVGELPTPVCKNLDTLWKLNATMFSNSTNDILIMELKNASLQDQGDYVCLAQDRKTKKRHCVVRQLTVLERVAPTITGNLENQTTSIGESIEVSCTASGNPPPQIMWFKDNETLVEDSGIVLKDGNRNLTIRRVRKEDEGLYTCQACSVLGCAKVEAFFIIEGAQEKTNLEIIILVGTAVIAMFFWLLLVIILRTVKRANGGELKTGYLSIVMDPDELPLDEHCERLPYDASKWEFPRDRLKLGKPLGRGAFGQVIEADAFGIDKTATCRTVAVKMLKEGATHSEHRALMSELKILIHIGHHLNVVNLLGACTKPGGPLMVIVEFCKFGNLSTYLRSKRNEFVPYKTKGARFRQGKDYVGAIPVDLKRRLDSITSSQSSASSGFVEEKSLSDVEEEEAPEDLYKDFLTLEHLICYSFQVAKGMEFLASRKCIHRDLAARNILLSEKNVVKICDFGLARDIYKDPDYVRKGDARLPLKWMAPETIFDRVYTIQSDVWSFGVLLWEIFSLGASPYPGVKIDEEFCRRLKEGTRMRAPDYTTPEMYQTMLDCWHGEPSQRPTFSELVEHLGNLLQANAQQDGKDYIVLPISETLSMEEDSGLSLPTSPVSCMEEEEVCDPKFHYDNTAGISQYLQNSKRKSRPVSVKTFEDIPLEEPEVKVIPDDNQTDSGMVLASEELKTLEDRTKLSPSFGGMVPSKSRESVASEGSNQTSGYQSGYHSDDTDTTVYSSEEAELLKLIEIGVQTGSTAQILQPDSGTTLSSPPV
Method in brief: as §1

Flt-1 = biological target: T10, Flt-1 (Homo sapiens, UniProt P17948); assay: Kinase inhibition assay (33P transfer), Flt-1
T10 construct: Kinases are expressed as either kinase domains or full length constructs; made in house
Method in brief: as §2

Tek = biological target: T11, Tek (Homo sapiens, UniProt Q02763); assay: Kinase inhibition assay (33P transfer), Tek; conditions: read-out: Tek-1
T11 construct: Kinases are expressed as either kinase domains or full length constructs; made in house
Method in brief: as §2

c-Met = biological target: T12, c-Met (Homo sapiens, UniProt P08581); assay: Kinase inhibition assay (33P transfer), c-Met; conditions: Table 2, kinase inhibition class; read-out: Met-1
T12 construct: Kinases are expressed as either kinase domains or full length constructs; made in house
Method in brief: as §2

AKT = biological target: T13, AKT (Homo sapiens, UniProt Q9Y243); assay: Kinase inhibition assay (33P transfer), AKT; conditions: Table 2, kinase inhibition class; read-out: AKT3-1
T13 construct: Kinases are expressed as either kinase domains or full length constructs; made in house
T13 sequence (Q9Y243 whole entry, the tested form may be a part): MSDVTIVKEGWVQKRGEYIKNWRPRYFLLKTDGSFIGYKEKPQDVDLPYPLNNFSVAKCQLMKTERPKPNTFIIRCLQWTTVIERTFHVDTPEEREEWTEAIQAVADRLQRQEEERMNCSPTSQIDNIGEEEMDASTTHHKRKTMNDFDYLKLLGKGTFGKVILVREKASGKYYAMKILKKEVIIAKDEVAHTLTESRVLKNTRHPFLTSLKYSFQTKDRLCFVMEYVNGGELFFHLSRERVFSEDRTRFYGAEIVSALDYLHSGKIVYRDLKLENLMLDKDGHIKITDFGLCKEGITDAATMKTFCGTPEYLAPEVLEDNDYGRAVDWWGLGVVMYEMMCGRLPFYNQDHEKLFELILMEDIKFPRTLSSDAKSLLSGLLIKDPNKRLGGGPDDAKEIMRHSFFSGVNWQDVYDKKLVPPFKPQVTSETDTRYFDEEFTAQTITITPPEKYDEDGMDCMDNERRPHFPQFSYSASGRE
Method in brief: as §1

IGFR-1 = biological target: T14, IGFR-1 (Homo sapiens, UniProt P08069); assay: Kinase inhibition assay, IGFR-1 (Table 2); conditions: Table 2, kinase inhibition class
T14 construct: Kinases are expressed as either kinase domains or full length constructs; made in house
T14 sequence (P08069 31-1367): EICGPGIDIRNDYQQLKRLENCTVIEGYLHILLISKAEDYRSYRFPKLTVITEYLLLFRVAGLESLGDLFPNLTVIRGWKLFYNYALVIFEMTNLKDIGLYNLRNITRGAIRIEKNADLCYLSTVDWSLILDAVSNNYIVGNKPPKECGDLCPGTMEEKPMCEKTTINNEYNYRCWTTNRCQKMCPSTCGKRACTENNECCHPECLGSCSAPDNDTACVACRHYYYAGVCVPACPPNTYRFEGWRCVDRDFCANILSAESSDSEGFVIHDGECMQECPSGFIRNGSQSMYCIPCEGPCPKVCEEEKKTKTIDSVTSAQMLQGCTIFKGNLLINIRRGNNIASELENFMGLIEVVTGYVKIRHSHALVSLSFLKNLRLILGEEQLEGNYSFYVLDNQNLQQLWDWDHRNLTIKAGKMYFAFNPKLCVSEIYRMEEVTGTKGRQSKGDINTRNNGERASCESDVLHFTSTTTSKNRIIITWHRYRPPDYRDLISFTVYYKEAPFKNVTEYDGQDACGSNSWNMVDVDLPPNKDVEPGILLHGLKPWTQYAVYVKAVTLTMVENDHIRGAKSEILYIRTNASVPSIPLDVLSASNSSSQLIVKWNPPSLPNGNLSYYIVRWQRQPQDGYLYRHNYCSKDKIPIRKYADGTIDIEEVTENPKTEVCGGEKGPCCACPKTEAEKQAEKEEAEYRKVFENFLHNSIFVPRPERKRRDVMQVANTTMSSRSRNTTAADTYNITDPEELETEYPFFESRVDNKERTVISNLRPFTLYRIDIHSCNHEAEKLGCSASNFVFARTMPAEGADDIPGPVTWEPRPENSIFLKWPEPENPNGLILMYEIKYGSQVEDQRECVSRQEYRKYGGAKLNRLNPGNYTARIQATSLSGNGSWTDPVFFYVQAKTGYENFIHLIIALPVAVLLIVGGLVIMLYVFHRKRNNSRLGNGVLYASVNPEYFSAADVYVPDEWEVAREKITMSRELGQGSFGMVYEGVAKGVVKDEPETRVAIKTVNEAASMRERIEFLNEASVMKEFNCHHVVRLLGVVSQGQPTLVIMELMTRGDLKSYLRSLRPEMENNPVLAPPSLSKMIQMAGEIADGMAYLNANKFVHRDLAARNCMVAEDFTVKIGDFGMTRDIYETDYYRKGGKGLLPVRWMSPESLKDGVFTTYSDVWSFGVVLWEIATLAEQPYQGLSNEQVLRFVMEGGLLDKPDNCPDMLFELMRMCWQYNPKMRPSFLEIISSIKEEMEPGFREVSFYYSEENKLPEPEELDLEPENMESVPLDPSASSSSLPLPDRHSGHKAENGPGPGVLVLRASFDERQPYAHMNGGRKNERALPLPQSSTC

PDGFRB = biological target: T15, PDGFRB (Homo sapiens, UniProt P09619); assay: Kinase inhibition assay (33P transfer), PDGFRB; conditions: read-out: PDGFRB-1
T15 construct: Kinases are expressed as either kinase domains or full length constructs; made in house

Hck-1 = biological target: T16, Hck-1 (Homo sapiens, UniProt P08631); assay: Kinase inhibition assay (33P transfer), Hck; conditions: Table 6, Hck-1 kinase inhibition class
T16 construct: Kinases are expressed as either kinase domains or full length constructs; made in house

ErbB4 = biological target: T17, ErbB4 (Homo sapiens, UniProt Q15303); assay: Kinase inhibition assay (33P transfer), ErbB4; conditions: read-out: ErbB4-1
T17 construct: Kinases are expressed as either kinase domains or full length constructs; made in house

Ret-1 = biological target: T18, Ret-1 (Homo sapiens, UniProt P07949); assay: Kinase inhibition assay (33P transfer), Ret; conditions: Table 6, Ret-1 kinase inhibition class
T18 construct: Kinases are expressed as either kinase domains or full length constructs; made in house

FGFR1 = biological target: T19, FGFR1 (Homo sapiens, UniProt P11362); assay: Kinase inhibition assay (33P transfer), FGFR1; conditions: read-out: FGFR1-1
T19 construct: Kinases are expressed as either kinase domains or full length constructs; made in house

Measured: IC50

COc1cc(Nc2ncnc(-n3c(NCc4cccc(C)c4)nc4ccccc43)n2)cc(OC)c1OC [Compound 515]
< 0.804 µM: Lck | Kdr | PDGFRB | Ret-1 | FGFR1
7.03 to 9.04 µM: Tek
0.804 to 4.82 µM: Flt-1
> 9.04 µM: all other assays above

COc1cc(Nc2ncnc(-n3c(NCc4ccc(C)cc4)nc4ccccc43)n2)cc(OC)c1OC [Compound 516]
< 0.804 µM: Kdr | Ret-1 | FGFR1
4.82 to 7.03 µM: Lck | Flt-1
7.03 to 9.04 µM: PDGFRB
> 9.04 µM: all other assays above

COc1cc(Nc2ncnc(-c3c(O)[nH]c4ccc(Cl)cc34)n2)cc(OC)c1OC [Compound 517]
< 0.935 µM: Kdr | Flt-1
0.935 to 5.61 µM: Lck | IGFR-1 | PDGFRB | FGFR1
> 10.5 µM: Src | Zap-70 | AKT | Hck-1 | ErbB4
8.18 to 10.5 µM: Lyn | Itk | c-Met
5.61 to 8.18 µM: all other assays above

COc1cc(Nc2ncnc(N3CCCc4ccc(C(F)(F)F)cc43)n2)cc(OC)c1OC [Compound 518]
< 0.867 µM: EGFR
5.2 to 7.58 µM: Fyn
0.867 to 5.2 µM: Lyn | ErbB2
7.58 to 9.75 µM: Kdr | Tek | Ret-1
> 9.75 µM: all other assays above

COc1cc(Nc2ncnc(-n3c(NCc4ccccn4)nc4ccccc43)n2)cc(OC)c1OCCN1CCOCC1 [Compound 519]
6 to 7.71 µM: Lyn
0.685 to 4.11 µM: Lck | Flt-1 | IGFR-1
< 0.685 µM: Kdr | PDGFRB | Ret-1 | FGFR1
> 7.71 µM: all other assays above

COc1cc(Nc2ncnc(N3c4ccccc4CC3C)n2)cc(OC)c1OC (stereo not shown) [Compound 610]
< 1.02 µM: Lck | Lyn | Kdr | Flt-1 | PDGFRB | Ret-1 | FGFR1
> 11.4 µM: Zap-70 | AKT | Hck-1
6.1 to 8.9 µM: Tek
1.02 to 6.1 µM: all other assays above

COc1cc(Nc2ncnc(N3c4ccccc4CCC3C)n2)cc(OC)c1OC (stereo not shown) [Compound 612]
< 0.982 µM: Lck | Kdr | Flt-1 | c-Met | FGFR1
8.59 to 11 µM: Zap-70 | Hck-1
> 11 µM: AKT
5.89 to 8.59 µM: IGFR-1
0.982 to 5.89 µM: all other assays above
